Here are results for eleven compounds from patent US9675615B2, “2,3-dihydroquinazolin-4(1H)-one derivatives for use in the treatment of viral infections” (priority 2012, dated 2017).

Where two headings read alike, the source gives them in different places.

The subject of assay [1] is recombinant Ebolavirus that encodes green fluorescent protein. Nature of the assay: microbe, parasite or virus in culture. Type of assay: cell-based. The following applies: read-out: IC50 (concentration that results in 50% inhibition of infection).
A further assay deals with Ebolavirus. The following applies: cited from earlier work.
A further assay has as its system filoviruses. The following applies: cited from earlier work.

In the case of `O=C1c2ccccc2NC(c2ccc(-c3ccccn3)s2)N1c1ccccc1` (centres unmarked) [Compound 19, 3-Phenyl-2-(5-(pyridin-2-yl)thiophen-2-yl)-2,3-dihydroquinazolin-4(1H)-one], the IC50 in assay [1] (Orthoebolavirus, HeLa) is 5.6 µM. The same measure, in the same setting: the value for `CSc1ccc(C2Nc3ccccc3C(=O)N2c2ccccc2)s1` (centres unmarked) [Compound 17, 2-(5-(Methylthio)thiophen-2-yl)-3-phenyl-2,3-dihydroquinazolin-4(1H)-one] was 7.4 µM. With `Cc1nc(-c2ccc(C3Nc4ccccc4C(=O)N3c3ccccc3)s2)cs1` (centres unmarked) [Compound 21, 2-(5-(2-Methylthiazol-4-yl)thiophen-2-yl)-3-phenyl-2,3-dihydroquinazolin-4(1H)-one], in assay [1] (Orthoebolavirus, HeLa), the IC50 stood at 2.3 µM.

Regarding `O=C1c2ccccc2NC(c2ccc(-c3ccccc3)s2)N1c1ccccc1` (centres unmarked) [Compound 13, 3-Phenyl-2-(5-phenylthiophen-2-yl)-2,3-dihydroquinazolin-4(1H)-one], in assay [1] (Orthoebolavirus, HeLa), the IC50 was 4.2 µM. On the same count and under the same terms, for `CCc1ccc(C2Nc3ccccc3C(=O)N2c2ccccc2)s1` (centres unmarked) [Compound 7, 2-(5-Ethylthiophen-2-yl)-3-phenyl-2,3-dihydroquinazolin-4(1H)-one] the value was 11 µM. As for `Cc1ccc(C2Nc3ccccc3C(=O)N2c2ccccc2)s1` (centres unmarked) [Retro-2^cycl, reference compound], the IC50 in assay [1] worked out at 42.5 µM. In the case of `CC(Cc1ccc(O)c(O)c1)C(C)Cc1ccc(O)c(O)c1` (centres unmarked) [NDGA], in the assay on Ebolavirus, the “effect on Ebolavirus infectivity” value is listed as “loss of infectivity”. `O=C1c2ccccc2NC(c2ccc(-c3cccs3)s2)N1c1ccccc1` (centres unmarked) [Compound 18, 2-([2,2′-Bithiophen]-5-yl)-3-phenyl-2,3-dihydroquinazolin-4(1H)-one]: in assay [1] (Orthoebolavirus, HeLa), the IC50 came to 4.7 µM. For `C[C@H]1CCC/C=C/[C@@H]2C[C@H](O)C[C@H]2[C@H](O)/C=C/C(=O)O1` [Brefeldin A], the “effect on Ebolavirus infectivity” value with Ebolavirus is “loss of infectivity”.

In the case of `NC(=O)c1ncn([C@@H]2O[C@H](CO)[C@@H](O)[C@H]2O)n1` [ribavirin], the efficacy against filoviruses result in the assay with filoviruses is “ineffective”. Take `O=C1c2ccccc2NC(c2ccc(-c3ccco3)s2)N1c1ccccc1` (centres unmarked) [Compound 20, 2-(5-(Furan-2-yl)thiophen-2-yl)-3-phenyl-2,3-dihydroquinazolin-4(1H)-one]: in assay [1] (Orthoebolavirus, HeLa), the IC50 came out at 5.4 µM.
